The results in this text go back to BindingDB's records for doi:10.1021/acs.jnatprod.6b00262 (Kindai University, 2016).

Structures are written as SMILES.

This assay is described as follows: Antagonist activity at human EGFP-fused CCR3 expressed in mouse L1.2 cells assessed as inhibition of CCL11-induced chemotaxis measured after 1.5 hrs by PicoGreen dsDNA reagent-based assay.
The term EC50 denotes the concentration at which the effect is half-maximal. As to `C/C=C/c1cc(OC)c2c(c1)[C@@H](C)[C@H](c1cc(OC)c(O)c(OC)c1)O2`, the EC50 was 1600 nM. As for `C=CCc1cc(OC)c(O[C@@H](C)[C@H](OC(C)=O)c2ccc(OC)c(OC)c2)c(OC)c1`, the figure is 1400 nM; as for `C=CCc1cc(OC)c(O[C@H](C)[C@@H](O)c2cc(OC)c(O)c(OC)c2)c(OC)c1`, 1500 nM.

As for `COC(=O)[C@H](Cc1ccc([N+](=O)[O-])cc1)NC(=O)c1cccc2ccccc12` [(S)-2-[(Naphthalene-1-carbonyl)-amino]-3-(4-nitro-phenyl)-propionic acid methyl ester], the EC50 stood at 780 nM.
